Here are results for seven compounds from patent US9169502B2, “Method of producing L-lysine using a Corynebacterium glutamicum microorganism” (Paik Kwang Industrial Co., Ltd., priority 2010, dated 2015).

Where two headings read alike, the source gives them in different places.

Test [1] concerns the target T1, Corynebacterium glutamicum glucose 6-phosphate dehydrogenase (G6PDH, zwf), wild type (Corynebacterium glutamicum, UniProt Q8NQ63).
T1 sequence (Q8NQ63 1-484): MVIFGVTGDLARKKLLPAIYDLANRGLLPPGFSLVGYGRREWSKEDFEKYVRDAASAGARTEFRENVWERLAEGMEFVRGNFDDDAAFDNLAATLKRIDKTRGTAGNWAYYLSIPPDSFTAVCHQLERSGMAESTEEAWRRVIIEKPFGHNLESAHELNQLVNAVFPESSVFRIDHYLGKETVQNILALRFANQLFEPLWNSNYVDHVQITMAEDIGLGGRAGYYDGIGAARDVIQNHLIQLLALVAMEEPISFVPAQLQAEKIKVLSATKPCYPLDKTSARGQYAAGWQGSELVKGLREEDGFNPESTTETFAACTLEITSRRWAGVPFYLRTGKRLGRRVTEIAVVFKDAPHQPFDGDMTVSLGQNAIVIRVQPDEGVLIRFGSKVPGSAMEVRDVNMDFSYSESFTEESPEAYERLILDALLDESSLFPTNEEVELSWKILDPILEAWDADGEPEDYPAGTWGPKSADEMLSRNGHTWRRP
T1 sequence (Q8NQ62 1-319 partner): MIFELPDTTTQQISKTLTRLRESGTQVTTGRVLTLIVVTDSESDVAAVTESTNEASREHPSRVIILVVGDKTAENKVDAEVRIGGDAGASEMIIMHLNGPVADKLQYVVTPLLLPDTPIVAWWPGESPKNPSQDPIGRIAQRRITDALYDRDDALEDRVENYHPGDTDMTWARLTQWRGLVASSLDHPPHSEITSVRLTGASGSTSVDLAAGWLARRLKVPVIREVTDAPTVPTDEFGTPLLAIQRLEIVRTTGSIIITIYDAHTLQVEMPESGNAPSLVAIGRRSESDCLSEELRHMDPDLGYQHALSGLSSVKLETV
The test is described as follows: Kinetic characterization of wild type G6P dehydrogenase (Michaelis-Menten constants and inhibition by metabolites). Format: biochemical. As to conditions: relative to the activity without addition (100%). The method, then: (§1) In the exponential growth phase, cells were harvested by centrifugation (5 min, 9800×g, Biofuge stratos, Heraeus, Hanau, Germany), washed once with disruption buffer and finally suspended to 0.25 g CWW per mL. Disruption was performed by sonication (MSE soniprep 150, Sanyo Europe, Munich, Germany) in a ice-water-bath with five 15 sec pulses at 20 microns, or mechanically. To this end, cell suspension was aliquoted in 750 μl amounts in 2 mL Eppendorf tubes containing glass beads. Disruption was performed in a ribolyser (MM301, Retsch, Haan, Germany) at 30 Hz (2×5 min; 5 minutes break in between). Crude cell extracts were obtained by centrifugation for 10 minutes at 13000 rpm (Biofuge fresco, Heraeus, Hanau, Germany) for ribolyser disruption or 2×30 min at 8500 rpm (Biofuge stratos, Heraeus, Hanau, Germany) for disruption by sonication. Protein content was determined by the method of Bradford (Bradford, 1976) with a reagent solution from BioRad (Quick Start Bradford Dye, BioRad, Hercules, USA) and a BSA protein standard.
All measurements were performed as triplicates in a total volume of 1 mL by online monitoring of the change in absorbance in a photospectrometer (Specord 40, Analytik Jena, Jena, Germany or Helios alpha, Thermo Scientific, Waltham, USA). […] Activities are given as specific enzyme activity [U mg^−1] with 1 U=1 μmol min^−1 at 30° C. and calculated from the change in absorbance [A min^−1] and a specific extinction coefficient of ε340=6.22 L mmol^−1 cm^−1 for NAD(P)H. As a general procedure, a master mix without substrate and cell extract was prepared from the stock solutions for the reaction buffer, MgCl2, Co-factors (NADP, NAD, NADH, ADP, TPP, CoA) and coupling enzymes (LDH, G6PDH, PGI, ribose 5-phosphate isomerase (RPI), ribulose 5-phosphate epimerase (RPE), TPI/GDH) and incubated for 10 min at 30° C. […]
Cell disruption was performed in a buffer containing 100 mM Tris/HCl (pH 7.5), 10 mM MgCl2 and 0.75 mM DTT. […] Due to instability of the enzyme, the activity was measured immediately after cell disruption. […]

Test [2] deals with T2, Corynebacterium glutamicum glucose 6-phosphate dehydrogenase (G6PDH, zwf), variant A243T (Corynebacterium glutamicum, UniProt Q8NQ63).
T2 construct: grown on glucose minimal medium
The test is described as follows: Kinetic characterization of A243T-variant of G6P dehydrogenase (Michaelis-Menten constants and inhibition by metabolites). It counts as biochemical. As to conditions: for Km: A243T mutant, cell extracts from cells grown on minimal medium with glucose, 30° C., pH 7.8. The method, then: as §1
All measurements were performed as triplicates in a total volume of 1 mL by online monitoring of the change in absorbance in a photospectrometer (Specord 40, Analytik Jena, Jena, Germany or Helios alpha, Thermo Scientific, Waltham, USA). Negative controls were carried out without substrate or cell extract, respectively. Activities are given as specific enzyme activity [U mg^−1] with 1 U=1 μmol min^−1 at 30° C. and calculated from the change in absorbance [A min^−1] and a specific extinction coefficient of ε340=6.22 L mmol^−1 cm^−1 for NAD(P)H. As a general procedure, a master mix without substrate and cell extract was prepared from the stock solutions for the reaction buffer, MgCl2, Co-factors (NADP, NAD, NADH, ADP, TPP, CoA) and coupling enzymes (LDH, G6PDH, PGI, ribose 5-phosphate isomerase (RPI), ribulose 5-phosphate epimerase (RPE), TPI/GDH) and incubated for 10 min at 30° C. Substrate solution and cell extract were provided in 1.5 mL polystyrene cuvettes (Plastibrand, Wertheim, Germany). The reaction was started by quick addition of the master mix.
Cell disruption was performed in a buffer containing 100 mM Tris/HCl (pH 7.5), 10 mM MgCl2 and 0.75 mM DTT. DTT was prepared freshly as 100 mM stock solution and added to the cell suspension before disruption. Due to instability of the enzyme, the activity was measured immediately after cell disruption. The reaction mix for quantification of the G6P dehydrogenase activity contained 100 mM Tris/HCl (pH 7.8), 200 mM KCl, 1 mM NADP, 10 mM MgCl2, 5 mM G6P and 50 μl cell extract. Michaelis-Menten affinity constants were determined by varying the concentrations of the substrates, G6P or NADP, respectively. To test the influence of effectors on activity, the reaction mix was additionally supplemented with ATP, PEP, FBP or NADPH in varied concentrations.

Test [3] relates to Corynebacterium glutamicum diaminopimelate dehydrogenase (DDH), SEQ ID NO: 6. As to conditions: Wehrmann, et al., 1998; read-out: km value towards ammonium; cited from earlier work.

On to `Nc1ncnc2c1ncn2[C@@H]1O[C@H](COP(=O)(O)OP(=O)(O)OP(=O)(O)O)[C@@H](O)[C@H]1O` [ATP, Adenosine triphosphate], for which the percent remaining activity at 5000 µM in test [1] (5 mM ATP) came out at 68.8 ± 0.1%. The “Inhibition by metabolites (Remaining Activity), ATP” value in test [2] (5 mM ATP, relative to the activity without addition (100%)) is given as 86.0 ± 0.2%.
For orientation: inhibition means the relative decrease from the control value, in per cent. Turning to `O=P(O)(O)OC[C@H]1OC(O)(COP(=O)(O)O)[C@@H](O)[C@@H]1O` (stereo partly shown) [FBP, Fructose 1,6-bisphosphate], the inhibition at 5000 µM in test [1] (5 mM FBP, read-out: Inhibition by metabolites (Remaining Activity), FBP) stood at 84.4%. The “Inhibition by metabolites (Remaining Activity), FBP” value in test [2] (5 mM FBP, relative to the activity without addition (100%)) was 87.0 ± 0.1%.
What is called Km is the substrate concentration at which the rate is half of its maximum. Consider `O=P(O)(O)OC[C@H]1OC(O)[C@H](O)[C@@H](O)[C@@H]1O` (stereo partly shown) [G6P, Glucose 6-phosphate], for which the Km in test [2] (read-out: KM, G6P) turned out to be 481 ± 31 µM.
Take `NC(=O)c1ccc[n+]([C@@H]2O[C@H](COP(=O)(O)OP(=O)(O)OC[C@H]3O[C@@H](n4cnc5c(N)ncnc54)[C@H](OP(=O)(O)O)[C@@H]3O)[C@@H](O)[C@H]2O)c1` [NADP, Nicotinamide adenine dinucleotide phosphate]: the Km in test [2] (read-out: KM, NADP) is 75 ± 4 µM.
For the compound `NC(=O)C1=CN([C@@H]2O[C@H](COP(=O)(O)OP(=O)(O)OC[C@H]3O[C@@H](n4cnc5c(N)ncnc54)[C@H](OP(=O)(O)O)[C@@H]3O)[C@@H](O)[C@H]2O)C=CC1` [NADPH, Nicotinamide adenine dinucleotide phosphate], in test [2] (A243T compared with wild type enzyme, FIG. 10B), the “inhibition by NADPH” value is “No significant difference”.
For `C=C(OP(=O)(O)O)C(=O)O` [PEP, Phosphoenolpyruvate], the inhibition at 5000 µM in test [1] (5 mM PEP, read-out: Inhibition by metabolites (Remaining Activity), PEP) was 62.6 ± 0.1%. For the same compound, the “Inhibition by metabolites (Remaining Activity), PEP” value in test [2] (5 mM PEP, relative to the activity without addition (100%)) is 72.5 ± 0.1%.
`N` [ammonium]: the Michaelis-Menten constant (Km) in test [3] was 34000 µM.
